Assay results taken from ChEMBL document CHEMBL1201861, “Genomics of Drug Sensitity in Cancer screening data, Wellcome Trust Sanger Institute”.

What was measured:
Test in all cases: cells
DB = format: functional, cell-based; details: Homo sapiens
Description: SANGER: Inhibition of human DB cell growth in a cell viability assay.

DEL = format: functional, cell-based; details: Homo sapiens;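 also: growth inhibition of the human DEL cell line, read out with a cell viability assay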
Description: SANGER: Inhibition of human DEL cell growth in a cell viability assay.

Detroit 562 = format: functional, cell-based, Homo sapiens; details: Homo sapiens, Detroit 562;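 also: growth inhibition of human Detroit 562 cells, read out by a cell viability assay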
Description: SANGER: Inhibition of human Detroit562 cell growth in a cell viability assay.

ES4 = format: functional, cell-based, Homo sapiens; details: Homo sapiens, ES4;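 also: growth inhibition of human ES4 cells, read out by a cell viability assay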
Description: SANGER: Inhibition of human ES4 cell growth in a cell viability assay.

ES8 = format: functional, cell-based, Homo sapiens; details: Homo sapiens, ES8;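 also: growth inhibition of human ES8 cells, read out with a cell viability assay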
Description: SANGER: Inhibition of human ES8 cell growth in a cell viability assay.

ETK-1 = format: functional, cell-based, Homo sapiens; details: Homo sapiens, ETK-1;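 also: growth inhibition of human ETK-1 cells, read out with a cell viability assay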
Description: SANGER: Inhibition of human ETK-1 cell growth in a cell viability assay.

EW-13 = format: functional, cell-based; details: Homo sapiens;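 also: growth inhibition of EW-13 cells, read out with a cell viability assay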
Description: SANGER: Inhibition of human EW-13 cell growth in a cell viability assay.

HO-1-N-1 = format: functional, cell-based, Homo sapiens; details: Homo sapiens, HO-1-N-1;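 also: growth inhibition of human HO-1-N-1 cells, read out with a cell viability assay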
Description: SANGER: Inhibition of human HO-1-N-1 cell growth in a cell viability assay.

HT-3 = format: functional, cell-based, Homo sapiens; details: Homo sapiens, HT-3;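 also: growth inhibition measured with a cell viability readout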
Description: SANGER: Inhibition of human HT-3 cell growth in a cell viability assay.

HuO-3N1 = format: functional, cell-based, Homo sapiens; details: Homo sapiens, HuO-3N1;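 also: cell viability readout used to measure how strongly compounds suppress proliferation of human HuO-3N1 cells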
Description: SANGER: Inhibition of human HuO-3N1 cell growth in a cell viability assay.

IST-MEL1 = format: functional, cell-based, Homo sapiens; details: Homo sapiens, IST-MEL1;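 also: growth inhibition of the cell line, read out with a cell viability assay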
Description: SANGER: Inhibition of human IST-MEL1 cell growth in a cell viability assay.

KE-37 = format: functional, cell-based; details: Homo sapiens;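 also: growth inhibition of KE-37 cells, read out with a cell viability assay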
Description: SANGER: Inhibition of human KE-37 cell growth in a cell viability assay.

KLE = format: functional, cell-based, Homo sapiens; details: Homo sapiens, KLE;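 also: growth inhibition of human KLE cells, read out with a cell viability assay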
Description: SANGER: Inhibition of human KLE cell growth in a cell viability assay.

KNS-42 = format: functional, cell-based, Homo sapiens; details: Homo sapiens, KNS-42;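 also: growth inhibition of KNS-42 cells, read out with a cell viability assay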
Description: SANGER: Inhibition of human KNS-42 cell growth in a cell viability assay.

KYSE-410 = format: functional, cell-based, Homo sapiens; details: Homo sapiens, KYSE-410;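 also: growth inhibition of KYSE-410 cells, measured through a cell viability readout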
Description: SANGER: Inhibition of human KYSE-410 cell growth in a cell viability assay.

KYSE-70 cell line = format: functional, cell-based, Homo sapiens; details: Homo sapiens, KYSE-70;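 also: cell viability assay read-out, with IC50 expressing suppression of KYSE-70 cell growth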
Description: SANGER: Inhibition of human KYSE-70 cell growth in a cell viability assay.

LC-2-ad = format: functional, cell-based, Homo sapiens; details: Homo sapiens, LC-2-ad;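 also: growth inhibition of human LC-2-ad cells, read out with a cell viability assay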
Description: SANGER: Inhibition of human LC-2-ad cell growth in a cell viability assay.

LOX IMVI = format: functional, cell-based; details: Homo sapiens
Description: SANGER: Inhibition of human LOXIMVI cell growth in a cell viability assay.

LS-513 = format: functional, cell-based, Homo sapiens; details: Homo sapiens, LS-513
Description: SANGER: Inhibition of human LS-513 cell growth in a cell viability assay.

LU-99A = format: functional, cell-based, Homo sapiens; details: Homo sapiens, LU-99A;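 also: growth inhibition of LU-99A cells, read out with a cell viability assay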
Description: SANGER: Inhibition of human LU-99A cell growth in a cell viability assay.

MEG-01 = format: functional, cell-based; details: Homo sapiens;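 also: growth inhibition of MEG-01 cells, read out by a cell viability assay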
Description: SANGER: Inhibition of human MEG-01 cell growth in a cell viability assay.

MHH-ES-1 = format: functional, cell-based, Homo sapiens; details: Homo sapiens, MHH-ES-1;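 also: cell growth inhibition measured by a cell viability assay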
Description: SANGER: Inhibition of human MHH-ES-1 cell growth in a cell viability assay.

MHH-PREB-1 = format: functional, cell-based; details: Homo sapiens;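 also: cell viability assay measuring inhibition of proliferation of human MHH-PREB-1 cells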
Description: SANGER: Inhibition of human MHH-PREB-1 cell growth in a cell viability assay.

MKN-28 = format: functional, cell-based, Homo sapiens; details: Homo sapiens, MKN-28;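 also: cell viability assay read-out, IC50 reflects suppression of growth of human MKN-28 cells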
Description: SANGER: Inhibition of human MKN28 cell growth in a cell viability assay.

MZ1-PC = format: functional, cell-based, Homo sapiens; details: Homo sapiens, MZ1-PC;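 also: cell viability assay measuring growth inhibition of human MZ1-PC cells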
Description: SANGER: Inhibition of human MZ1-PC cell growth in a cell viability assay.

NB5 = format: functional, cell-based, Homo sapiens; details: Homo sapiens, NB5;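 also: growth inhibition of NB5 cells, read out as cell viability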
Description: SANGER: Inhibition of human NB5 cell growth in a cell viability assay.

NCI-H1693 = format: functional, cell-based, Homo sapiens; details: Homo sapiens, NCI-H1693;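 also: growth inhibition of the human cell line, read out with a cell viability assay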
Description: SANGER: Inhibition of human NCI-H1693 cell growth in a cell viability assay.

NCI-H2126 = format: functional, cell-based, Homo sapiens; details: Homo sapiens, NCI-H2126;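 also: growth inhibition of the cancer cell line, determined with a cell viability readout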
Description: SANGER: Inhibition of human NCI-H2126 cell growth in a cell viability assay.

NCI-H520 = format: functional, cell-based, Homo sapiens; details: Homo sapiens, NCI-H520;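 also: growth inhibition of NCI-H520 cells, measured by a cell viability assay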
Description: SANGER: Inhibition of human NCI-H520 cell growth in a cell viability assay.

NCI-H526 = format: functional, cell-based; details: Homo sapiens;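 also: growth inhibition of the human NCI-H526 cell line, measured by a cell viability assay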
Description: SANGER: Inhibition of human NCI-H526 cell growth in a cell viability assay.

SBC-1 = format: functional, cell-based; details: Homo sapiens;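 also: cell viability assay measuring growth inhibition of the SBC-1 cell line, IC50 being the concentration that halves growth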
Description: SANGER: Inhibition of human SBC-1 cell growth in a cell viability assay.

SK-MEL-24 = format: functional, cell-based; details: Homo sapiens;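 also: growth inhibition read out by a cell viability assay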
Description: SANGER: Inhibition of human SK-MEL-24 cell growth in a cell viability assay.

SNU-449 = format: functional, cell-based, Homo sapiens; details: Homo sapiens, SNU-449
Description: SANGER: Inhibition of human SNU-449 cell growth in a cell viability assay.

SW13 = format: functional, cell-based, Homo sapiens; details: Homo sapiens, SW13;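 also: IC50 is inhibition of SW13 cell growth, read out with a cell viability assay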
Description: SANGER: Inhibition of human SW13 cell growth in a cell viability assay.

SW48 = format: functional, cell-based, Homo sapiens; details: Homo sapiens, SW48;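 also: growth inhibition of SW48 cells, read out with a cell viability assay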
Description: SANGER: Inhibition of human SW48 cell growth in a cell viability assay.

SW-620 = format: functional, cell-based, Homo sapiens; details: Homo sapiens, SW-620;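 also: growth inhibition of human SW-620 cells, measured by a cell viability assay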
Description: SANGER: Inhibition of human SW620 cell growth in a cell viability assay.

T98G = format: functional, cell-based, Homo sapiens; details: Homo sapiens, T98G;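 also: growth inhibition of T98G cells, read out by a cell viability assay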
Description: SANGER: Inhibition of human T98G cell growth in a cell viability assay.

8305C = format: functional, cell-based, Homo sapiens; details: Homo sapiens, 8305C
Description: SANGER: Inhibition of human 8305C cell growth in a cell viability assay.

A2780 = format: functional, cell-based, Homo sapiens; details: Homo sapiens, A2780;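 also: growth inhibition of A2780 cells, read out with a cell viability assay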
Description: SANGER: Inhibition of human A2780 cell growth in a cell viability assay.

A498 = format: functional, cell-based, Homo sapiens; details: Homo sapiens, A498;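 also: growth inhibition of human A498 cells, read out with a cell viability assay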
Description: SANGER: Inhibition of human A498 cell growth in a cell viability assay.

BB30-HNC = format: functional, cell-based, Homo sapiens; details: Homo sapiens, BB30-HNC;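 also: growth inhibition of the cultured cell line, read out by a cell viability assay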
Description: SANGER: Inhibition of human BB30-HNC cell growth in a cell viability assay.

BB49-HNC = format: functional, cell-based, Homo sapiens; details: Homo sapiens, BB49-HNC;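 also: cell viability assay read-out, reported as inhibition of BB49-HNC cell growth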
Description: SANGER: Inhibition of human BB49-HNC cell growth in a cell viability assay.

BHT-101 = format: functional, cell-based, Homo sapiens; details: Homo sapiens, BHT-101
Description: SANGER: Inhibition of human BHT-101 cell growth in a cell viability assay.

C-33-A = format: functional, cell-based, Homo sapiens; details: Homo sapiens, C-33-A;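 also: cell viability assay measuring growth inhibition of C-33-A cells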
Description: SANGER: Inhibition of human C-33-A cell growth in a cell viability assay.

C3A = format: functional, cell-based, Homo sapiens; details: Homo sapiens, C3A;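 also: growth inhibition of C3A human cells, quantified with a cell viability readout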
Description: SANGER: Inhibition of human C3A cell growth in a cell viability assay.

CAL-27 = format: functional, cell-based, Homo sapiens; details: Homo sapiens, CAL-27;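 also: Viability-based readout, IC50 reflecting inhibition of CAL-27 cell growth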
Description: SANGER: Inhibition of human CAL-27 cell growth in a cell viability assay.

CAL-51 = format: functional, cell-based, Homo sapiens; details: Homo sapiens, CAL-51;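 also: human CAL-51 cell line, growth inhibition read out via a cell viability assay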
Description: SANGER: Inhibition of human CAL-51 cell growth in a cell viability assay.

CAL-62 = format: functional, cell-based, Homo sapiens; details: Homo sapiens, CAL-62;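 also: growth inhibition of CAL-62 cells, read out with a cell viability assay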
Description: SANGER: Inhibition of human CAL-62 cell growth in a cell viability assay.

VM-CUB-1 = format: functional, cell-based; details: Homo sapiens;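 also: cell viability assay measuring growth inhibition of the human VM-CUB-1 cell line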
Description: SANGER: Inhibition of human VM-CUB-1 cell growth in a cell viability assay.

YKG-1 = format: functional, cell-based, Homo sapiens; details: Homo sapiens, YKG-1;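 also: cell growth inhibition, read out with a viability assay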
Description: SANGER: Inhibition of human YKG-1 cell growth in a cell viability assay.

CHP-212 = format: functional, cell-based, Homo sapiens; details: Homo sapiens, CHP-212
Description: SANGER: Inhibition of human CHP-212 cell growth in a cell viability assay.

COLO-679 = format: functional, cell-based, Homo sapiens; details: Homo sapiens, COLO-679
Description: SANGER: Inhibition of human COLO-679 cell growth in a cell viability assay.

Measured: IC50

COc1ccc(C2=N[C@@H](c3ccc(Cl)cc3)[C@@H](c3ccc(Cl)cc3)N2C(=O)N2CCNC(=O)C2)c(OC(C)C)c1 [NUTLIN-3]
2.43 µM: ES4
6.56 µM: NB5
3.86 µM: LOX IMVI
6.79 µM: LS-513
1.81 µM: CHP-212
> 8 µM: DB | DEL | Detroit 562 | ES8 | ETK-1 | EW-13 | HO-1-N-1 | HT-3 | HuO-3N1 | IST-MEL1 | KE-37 | KLE | KNS-42 | KYSE-410 | KYSE-70 cell line | LC-2-ad | LU-99A | MEG-01 | MHH-ES-1 | MHH-PREB-1 | MKN-28 | MZ1-PC | NCI-H1693 | NCI-H2126 | NCI-H520 | NCI-H526 | SBC-1 | SK-MEL-24 | SNU-449 | SW13 | SW48 | SW-620 | T98G | 8305C | A2780 | A498 | BB30-HNC | BB49-HNC | BHT-101 | C-33-A | C3A | CAL-27 | CAL-51 | CAL-62 | VM-CUB-1 | YKG-1 | COLO-679

O=C(c1cc(Cc2n[nH]c(=O)c3ccccc23)ccc1F)N1CCN(C(=O)C2CC2)CC1 [OLAPARIB]
4.81 µM: SBC-1
1.62 µM: MHH-ES-1
1.72 µM: ES8
3.87 µM: NCI-H526
3.65 µM: DB
> 5 µM: DEL | Detroit 562 | ES4 | ETK-1 | EW-13 | HO-1-N-1 | HT-3 | HuO-3N1 | IST-MEL1 | KE-37 | KLE | KNS-42 | KYSE-410 | KYSE-70 cell line | LC-2-ad | LOX IMVI | LS-513 | LU-99A | MEG-01 | MHH-PREB-1 | MKN-28 | MZ1-PC | NB5 | NCI-H1693 | NCI-H2126 | NCI-H520 | SK-MEL-24 | SNU-449 | SW13 | SW48 | SW-620 | T98G | 8305C | A2780 | A498 | BB30-HNC | BB49-HNC | BHT-101 | C-33-A | C3A | CAL-27 | CAL-51 | CAL-62 | VM-CUB-1 | YKG-1 | CHP-212 | COLO-679
